According to ChEMBL document CHEMBL1201862, “PubChem BioAssay data set” (2004):
Calls of active or inactive are those of the source.

What was measured:
[1] = microbe, parasite or virus in culture; assay type: functional; conditions: Mycobacterium tuberculosis
[2] = A Cell Based Secondary Assay to Explore Cytotoxicity in HepG2 Cells of Compounds that Modulate Mycobacterium tuberculosis in Media Containing Glycerol versus Media without Glycerol (2).; assay type: functional
[3] = Vero cell cytotoxicity, dose response, cytotoxicity control for M. tuberculosis growth inhibitor project, Vero cells, purified and synthesized compounds, set 5 (AID 504909); assay type: functional; conditions: Mycobacterium tuberculosis
[4] = cytotoxicity in HMLE control line with eGFP shRNA, dose response, counter-screen for HMLE_sh_ECad selective toxicity project, cell-based, HMLE_sh_eGFP, luminescence (AID 463074); assay type: functional, Homo sapiens;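 also: HMLE human mammary epithelial cells expressing control shRNA against eGFP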
[5] = Vero cell cytotoxicity, cytotoxicity control for M. tuberculosis inhibitor project, purified and synthesized samples, set 3 (AID 504684); assay type: functional
[6] = THP-1 cell cytotoxicity, dose response, cytotoxicity control, set 3 (AID 504852); assay type: functional; conditions: Mycobacterium tuberculosis
[7] = THP-1 cell cytotoxicity, cytotoxicity control, set 4 (AID 504911); assay type: functional; conditions: Mycobacterium tuberculosis
[8] = HepG2 cell cytotoxicity, dose response, cytotoxicity control, set 3 (AID 504853); assay type: functional; conditions: Mycobacterium tuberculosis
[9] = Luminescence Cell-Based Dose Retest to Confirm Inhibitors of Cancer Stem Cells. [Related pubchem assays (depositor defined):AID2717, AID2721]; assay type: functional; conditions: Homo sapiens
[10] = Vero cell cytotoxicity, dose response, cytotoxicity control for M. tuberculosis growth inhibitor project, Vero cells, purified and synthesized compounds, set 4 (AID 504854); assay type: functional; conditions: Mycobacterium tuberculosis
[11] = A Cell Based Secondary Assay to Explore Cytotoxicity in THP-1 Cells of Compounds that Modulate Mycobacterium tuberculosis in Media Containing Glycerol versus Media without Glycerol (2).; assay type: functional
[12] = HepG2 cell cytotoxicity, cytotoxicity control, set 4 (AID 504910); assay type: functional; conditions: Mycobacterium tuberculosis
[13] = target: Melanin-concentrating hormone receptor 1 (Homo sapiens, UniProt Q99705); assay: Late-stage fluorescence-based counterscreen for antagonists of the G-protein coupled receptor 7 (GPR7): cell-based dose response assay to identify antagonists of the melanin-concentrating hormone receptor 1 (MCHR1) Set 6.; assay type: functional
[14] = target: Neuropeptides B/W receptor type 1 (Homo sapiens, UniProt P48145); assay: GPR7 antagonist potency, late-stage follow-up, cell-based, fluorescence, dose response, set 6 (AID 588583); assay type: functional
[15] = target: Bifunctional protein GlmU (Mycobacterium tuberculosis, UniProt P9WMN3); assay: Inhibitors of Mycobacterial Glucosamine-1-phosphate acetyl transferase (GlmU). Secondary screen.; set-up: species or system Mycobacterium tuberculosis H37Rv
[16] = target: 1-phosphatidylinositol 4,5-bisphosphate phosphodiesterase beta-3 (Homo sapiens, UniProt Q01970); assay: Fluorescence-based biochemical high throughput dose response assay to identify inhibitors of phospholipase C isozymes (PLC-B3).
[17] = target: Intestinal-type alkaline phosphatase (Homo sapiens, UniProt P09923); assay: inhibition of human intestinal alkaline phosphatase – biochemical, dose response (AID 488876); assay type: functional
[18] = target: T1, DNA dC->dU-editing enzyme APOBEC-3A (Homo sapiens, UniProt P31941); assay: SAR analysis of small molecule inhibitors of APOBEC3A DNA Deaminase via a fluorescence-based single-stranded DNA deaminase assay - Set 2.; assay type: functional; conditions: read-out: IC50_Mean
[19] = target: Ephrin type-A receptor 4 (Mus musculus, UniProt Q03137); assay: inhibitors of EphA4 binding to KYL peptide, primary screen, biochemical, colorimetric, mouse EphA4 (AID 689); assay type: functional
[20] = target: Protein-tyrosine kinase 2-beta (Homo sapiens, UniProt Q14289);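 also: potency of inhibitors of PYK2 kinase phosphorylation of poly-GT substrate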
[21] = target: 1-phosphatidylinositol 4,5-bisphosphate phosphodiesterase gamma-1 (Homo sapiens, UniProt P19174); assay: Counterscreen for inhibitors of phospholipase C isozymes (PLC-B3): Fluorescence-based biochemical high throughput dose response assay to identify inhibitors of phospholipase C isozymes (PLC-gamma1).
[22] = target: Troponin, cardiac muscle (Homo sapiens, UniProt P19429+P45379+P63316); assay: inhibitors of cardiac thin filament calcium sensitivity, dose response, biochemical, fluorescence, cardiac regulated thin filaments, triplicate IC50 (AID 504742); assay type: protein-complex assay
[23] = target: T1, DNA dC->dU-editing enzyme APOBEC-3A; assay: SAR analysis of small molecule inhibitors of APOBEC3A DNA Deaminase via a fluorescence-based single-stranded DNA deaminase assay.; assay type: functional; conditions: read-out: IC50_Mean
[24] = target: T2, Histone-lysine N-methyltransferase NSD2 (Homo sapiens, UniProt O96028); assay type: biochemical
T2 sequence (O96028 whole entry): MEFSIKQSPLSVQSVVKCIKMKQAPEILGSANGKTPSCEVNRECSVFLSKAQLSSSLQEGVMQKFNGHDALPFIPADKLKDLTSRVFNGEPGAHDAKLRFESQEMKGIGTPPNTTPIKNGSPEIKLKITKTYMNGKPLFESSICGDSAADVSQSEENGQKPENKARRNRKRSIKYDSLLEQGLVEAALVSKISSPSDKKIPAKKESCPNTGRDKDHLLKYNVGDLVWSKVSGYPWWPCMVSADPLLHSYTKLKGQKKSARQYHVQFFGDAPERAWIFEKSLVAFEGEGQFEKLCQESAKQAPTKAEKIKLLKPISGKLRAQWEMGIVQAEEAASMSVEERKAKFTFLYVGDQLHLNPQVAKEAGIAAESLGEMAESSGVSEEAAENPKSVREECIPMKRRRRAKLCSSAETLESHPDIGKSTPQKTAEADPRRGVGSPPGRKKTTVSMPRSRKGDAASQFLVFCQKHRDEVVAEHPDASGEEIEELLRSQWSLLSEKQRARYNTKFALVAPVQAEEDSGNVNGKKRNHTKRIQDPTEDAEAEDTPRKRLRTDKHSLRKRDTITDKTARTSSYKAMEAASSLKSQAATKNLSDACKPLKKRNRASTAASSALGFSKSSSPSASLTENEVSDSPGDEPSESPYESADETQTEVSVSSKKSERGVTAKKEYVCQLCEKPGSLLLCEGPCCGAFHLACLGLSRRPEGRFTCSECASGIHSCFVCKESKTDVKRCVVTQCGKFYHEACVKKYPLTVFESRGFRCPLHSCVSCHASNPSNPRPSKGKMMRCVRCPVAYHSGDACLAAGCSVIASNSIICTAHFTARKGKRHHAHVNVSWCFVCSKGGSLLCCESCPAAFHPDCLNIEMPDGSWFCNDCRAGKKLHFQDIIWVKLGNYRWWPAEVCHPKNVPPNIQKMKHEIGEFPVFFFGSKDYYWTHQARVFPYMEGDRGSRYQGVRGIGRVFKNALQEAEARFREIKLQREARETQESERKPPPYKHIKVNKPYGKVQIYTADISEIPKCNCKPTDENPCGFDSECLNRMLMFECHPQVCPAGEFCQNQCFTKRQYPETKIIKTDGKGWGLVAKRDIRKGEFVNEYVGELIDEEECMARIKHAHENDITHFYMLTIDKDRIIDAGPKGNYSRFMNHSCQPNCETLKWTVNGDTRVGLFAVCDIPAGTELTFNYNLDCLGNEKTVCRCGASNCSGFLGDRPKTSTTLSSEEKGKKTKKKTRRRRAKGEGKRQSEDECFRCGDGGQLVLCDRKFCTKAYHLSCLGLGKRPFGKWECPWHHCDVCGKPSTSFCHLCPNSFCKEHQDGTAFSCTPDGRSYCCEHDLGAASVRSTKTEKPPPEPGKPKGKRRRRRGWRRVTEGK

[25] = target: ORF 73 (Human herpesvirus 8, UniProt O40947); assay: inhibitors of C-LANA binding to LBS DNA, dose response, biochemical, fluorescence polarization, cherry-picked samples (AID 504725); set-up: species or system Human gammaherpesvirus 8;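 also: fluorescence polarization of a labeled DNA duplex reporting LANA DNA binding; potency is for inhibitors that block LANA binding to the DNA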
[26] = target: T3, DNA dC->dU-editing enzyme APOBEC-3G (Homo sapiens, UniProt Q9HC16); assay: SAR analysis of small molecule inhibitors of APOBEC3G DNA Deaminase via a fluorescence-based single-stranded DNA deaminase assay - Set 2.; assay type: functional; conditions: read-out: IC50_Mean
[27] = target: Intestinal-type alkaline phosphatase (Mus musculus, UniProt P24822); assay: PubChem AID 488785; assay type: functional
[28] = target: T4, Alkaline phosphatase, tissue-nonspecific isozyme (Homo sapiens, UniProt P05186); assay: TNAP enzyme inhibition by screening hits, dose response, selectivity assay for mouse IAP inhibitor project, biochemical, human TNAP, uHTS hits (AID 488906); assay type: functional
T4 sequence (P05186 whole entry): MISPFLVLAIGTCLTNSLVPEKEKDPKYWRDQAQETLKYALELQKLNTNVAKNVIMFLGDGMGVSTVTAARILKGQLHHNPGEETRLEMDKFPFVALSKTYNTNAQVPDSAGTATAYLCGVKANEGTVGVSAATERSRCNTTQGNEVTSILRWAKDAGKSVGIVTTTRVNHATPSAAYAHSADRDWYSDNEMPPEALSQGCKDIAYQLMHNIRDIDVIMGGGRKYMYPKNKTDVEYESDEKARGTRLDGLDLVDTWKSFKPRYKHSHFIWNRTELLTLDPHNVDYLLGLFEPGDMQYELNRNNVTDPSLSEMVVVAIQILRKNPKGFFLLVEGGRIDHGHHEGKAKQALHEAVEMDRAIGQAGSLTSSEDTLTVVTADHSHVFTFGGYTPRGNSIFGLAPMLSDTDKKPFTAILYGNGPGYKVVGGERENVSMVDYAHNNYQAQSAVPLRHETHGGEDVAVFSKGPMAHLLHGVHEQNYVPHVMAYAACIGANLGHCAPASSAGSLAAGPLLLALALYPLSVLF

[29] = Artemis endonuclease inhibitor potency, dose response, biochemical, fluorescence intensity (AID 720701); assay type: functional;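 also: Artemis endonuclease enzyme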
[30] = target: T3, DNA dC->dU-editing enzyme APOBEC-3G; assay: APOBEC3G deaminase inhibitors, SAR follow-up, biochemical, fluorescence, single-stranded DNA substrate (AID 602136); assay type: functional; conditions: read-out: IC50_Mean
[31] = target: T5, Apoptotic protease-activating factor 1 (Homo sapiens, UniProt O14727); assay: SAR analysis of small molecule Activators of Apaf-1 in a Fluorescent assay - set 2.; assay type: functional; conditions: read-out: EC50_Mean
T5 sequence (O14727 whole entry): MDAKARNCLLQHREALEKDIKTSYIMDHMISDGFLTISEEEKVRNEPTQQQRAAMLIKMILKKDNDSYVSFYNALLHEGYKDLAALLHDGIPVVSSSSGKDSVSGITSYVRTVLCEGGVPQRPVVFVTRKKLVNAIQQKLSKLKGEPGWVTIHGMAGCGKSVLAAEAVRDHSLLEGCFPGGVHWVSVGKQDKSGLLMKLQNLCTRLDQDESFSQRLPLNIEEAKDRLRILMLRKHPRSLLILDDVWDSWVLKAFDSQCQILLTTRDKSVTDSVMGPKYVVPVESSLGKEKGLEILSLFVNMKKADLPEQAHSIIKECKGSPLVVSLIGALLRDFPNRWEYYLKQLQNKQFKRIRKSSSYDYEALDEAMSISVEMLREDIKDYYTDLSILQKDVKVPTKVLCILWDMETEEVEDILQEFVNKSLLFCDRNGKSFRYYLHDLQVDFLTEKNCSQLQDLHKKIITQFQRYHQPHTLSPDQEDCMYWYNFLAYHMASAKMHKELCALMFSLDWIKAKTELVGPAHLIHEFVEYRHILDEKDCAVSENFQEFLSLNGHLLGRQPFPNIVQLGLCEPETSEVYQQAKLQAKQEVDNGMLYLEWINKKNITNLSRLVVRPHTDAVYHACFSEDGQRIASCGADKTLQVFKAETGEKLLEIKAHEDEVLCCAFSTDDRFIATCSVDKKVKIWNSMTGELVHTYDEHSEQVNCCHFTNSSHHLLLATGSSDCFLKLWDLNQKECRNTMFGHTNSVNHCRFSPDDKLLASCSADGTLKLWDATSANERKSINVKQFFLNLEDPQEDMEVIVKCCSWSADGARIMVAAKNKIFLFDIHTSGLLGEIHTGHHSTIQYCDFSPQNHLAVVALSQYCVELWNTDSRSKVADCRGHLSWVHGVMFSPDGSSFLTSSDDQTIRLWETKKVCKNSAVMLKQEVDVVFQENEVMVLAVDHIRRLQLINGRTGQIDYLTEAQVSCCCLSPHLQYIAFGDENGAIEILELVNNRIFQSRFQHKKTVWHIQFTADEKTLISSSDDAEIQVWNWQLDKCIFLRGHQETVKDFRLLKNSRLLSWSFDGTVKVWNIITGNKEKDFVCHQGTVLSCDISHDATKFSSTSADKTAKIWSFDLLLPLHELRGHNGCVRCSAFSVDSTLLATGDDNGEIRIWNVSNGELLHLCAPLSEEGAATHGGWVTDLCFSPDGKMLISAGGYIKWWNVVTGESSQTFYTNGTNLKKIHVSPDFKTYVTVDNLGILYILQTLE

[32] = SAR analysis of small molecule activators of Apaf-1 using a LZ-Caspase-9/Caspase-3 Fluorescent Selectivity assay - Set 2.; assay type: functional; conditions: read-out: EC50_Mean

T3 sequence (Q9HC16 whole entry): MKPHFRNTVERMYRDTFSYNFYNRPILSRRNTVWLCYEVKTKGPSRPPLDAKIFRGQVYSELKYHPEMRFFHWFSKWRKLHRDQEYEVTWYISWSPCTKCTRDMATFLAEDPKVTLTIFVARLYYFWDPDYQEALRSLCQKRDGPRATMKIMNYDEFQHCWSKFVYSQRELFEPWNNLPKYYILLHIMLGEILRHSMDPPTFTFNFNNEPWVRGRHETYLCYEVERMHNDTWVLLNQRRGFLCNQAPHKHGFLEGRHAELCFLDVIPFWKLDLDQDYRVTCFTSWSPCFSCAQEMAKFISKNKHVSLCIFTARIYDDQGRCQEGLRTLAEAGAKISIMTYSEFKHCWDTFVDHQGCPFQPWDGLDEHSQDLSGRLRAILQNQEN
T1 sequence (P31941 whole entry): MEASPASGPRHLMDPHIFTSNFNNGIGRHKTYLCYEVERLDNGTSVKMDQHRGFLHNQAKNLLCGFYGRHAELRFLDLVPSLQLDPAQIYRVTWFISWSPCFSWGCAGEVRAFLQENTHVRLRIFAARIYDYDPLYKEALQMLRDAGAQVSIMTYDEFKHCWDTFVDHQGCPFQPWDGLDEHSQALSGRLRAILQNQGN
Chain of Neuropeptides B/W receptor type 1 (P48145 whole entry): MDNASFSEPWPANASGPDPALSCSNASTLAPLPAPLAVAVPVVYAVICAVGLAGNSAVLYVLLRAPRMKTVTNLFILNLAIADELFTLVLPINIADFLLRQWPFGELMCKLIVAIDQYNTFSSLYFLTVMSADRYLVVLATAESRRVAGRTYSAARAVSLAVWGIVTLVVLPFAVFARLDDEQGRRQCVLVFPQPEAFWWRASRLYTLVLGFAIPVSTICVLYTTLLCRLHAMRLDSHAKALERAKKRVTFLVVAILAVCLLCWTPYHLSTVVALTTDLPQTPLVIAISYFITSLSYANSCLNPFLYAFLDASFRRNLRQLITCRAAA
Chain of Melanin-concentrating hormone receptor 1 (Q99705 whole entry): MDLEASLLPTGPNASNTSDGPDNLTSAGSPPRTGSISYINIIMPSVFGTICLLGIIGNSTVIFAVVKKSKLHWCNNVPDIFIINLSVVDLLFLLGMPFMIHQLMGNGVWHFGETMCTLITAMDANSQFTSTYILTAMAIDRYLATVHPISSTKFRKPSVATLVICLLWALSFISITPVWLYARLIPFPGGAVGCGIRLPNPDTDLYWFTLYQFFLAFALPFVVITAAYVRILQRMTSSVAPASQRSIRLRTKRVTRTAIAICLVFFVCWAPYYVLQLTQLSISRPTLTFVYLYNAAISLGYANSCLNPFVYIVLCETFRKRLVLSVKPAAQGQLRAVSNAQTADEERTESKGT
Chain of Ephrin type-A receptor 4 (Q03137 whole entry): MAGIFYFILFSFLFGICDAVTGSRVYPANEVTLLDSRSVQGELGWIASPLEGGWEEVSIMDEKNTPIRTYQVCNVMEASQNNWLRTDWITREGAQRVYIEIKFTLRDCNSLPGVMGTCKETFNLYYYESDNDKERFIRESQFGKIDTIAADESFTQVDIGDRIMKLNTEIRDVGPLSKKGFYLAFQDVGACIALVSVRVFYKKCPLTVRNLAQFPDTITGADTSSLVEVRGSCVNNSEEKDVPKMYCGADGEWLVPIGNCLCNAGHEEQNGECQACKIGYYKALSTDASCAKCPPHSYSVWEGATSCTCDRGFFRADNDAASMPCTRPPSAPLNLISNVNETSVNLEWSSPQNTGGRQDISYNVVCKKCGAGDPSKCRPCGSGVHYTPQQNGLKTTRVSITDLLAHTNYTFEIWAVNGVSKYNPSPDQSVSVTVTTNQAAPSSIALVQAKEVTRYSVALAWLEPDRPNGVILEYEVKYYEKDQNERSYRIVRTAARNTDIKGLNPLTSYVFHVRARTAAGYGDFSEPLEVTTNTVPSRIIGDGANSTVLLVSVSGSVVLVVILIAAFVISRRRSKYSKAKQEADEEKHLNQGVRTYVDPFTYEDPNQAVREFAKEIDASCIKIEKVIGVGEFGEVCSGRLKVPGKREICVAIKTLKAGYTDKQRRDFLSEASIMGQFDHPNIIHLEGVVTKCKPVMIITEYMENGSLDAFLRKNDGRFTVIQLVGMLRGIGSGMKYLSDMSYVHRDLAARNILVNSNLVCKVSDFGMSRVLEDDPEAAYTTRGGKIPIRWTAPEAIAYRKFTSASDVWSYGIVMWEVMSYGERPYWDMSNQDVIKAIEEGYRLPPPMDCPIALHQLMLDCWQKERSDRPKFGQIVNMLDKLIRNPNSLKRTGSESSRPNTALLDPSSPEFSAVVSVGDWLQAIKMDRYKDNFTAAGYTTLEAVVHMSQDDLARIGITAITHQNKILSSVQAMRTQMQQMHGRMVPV
Chain of Intestinal-type alkaline phosphatase (Homo sapiens, UniProt P09923) (P09923 whole entry): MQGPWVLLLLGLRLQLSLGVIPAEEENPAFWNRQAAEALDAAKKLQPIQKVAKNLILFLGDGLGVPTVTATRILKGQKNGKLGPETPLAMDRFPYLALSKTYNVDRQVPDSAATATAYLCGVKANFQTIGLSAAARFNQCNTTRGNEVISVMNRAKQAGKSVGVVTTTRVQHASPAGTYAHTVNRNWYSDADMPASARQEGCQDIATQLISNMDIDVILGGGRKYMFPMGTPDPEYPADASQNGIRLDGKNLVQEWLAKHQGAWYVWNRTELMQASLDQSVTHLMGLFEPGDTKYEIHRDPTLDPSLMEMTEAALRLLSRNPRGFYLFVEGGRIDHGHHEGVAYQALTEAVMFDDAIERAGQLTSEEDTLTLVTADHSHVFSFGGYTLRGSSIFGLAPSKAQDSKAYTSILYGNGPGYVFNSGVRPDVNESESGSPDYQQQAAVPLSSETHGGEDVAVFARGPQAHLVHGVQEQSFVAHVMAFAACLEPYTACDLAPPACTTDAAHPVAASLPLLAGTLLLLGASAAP
Chain of 1-phosphatidylinositol 4,5-bisphosphate phosphodiesterase beta-3 (Q01970 whole entry): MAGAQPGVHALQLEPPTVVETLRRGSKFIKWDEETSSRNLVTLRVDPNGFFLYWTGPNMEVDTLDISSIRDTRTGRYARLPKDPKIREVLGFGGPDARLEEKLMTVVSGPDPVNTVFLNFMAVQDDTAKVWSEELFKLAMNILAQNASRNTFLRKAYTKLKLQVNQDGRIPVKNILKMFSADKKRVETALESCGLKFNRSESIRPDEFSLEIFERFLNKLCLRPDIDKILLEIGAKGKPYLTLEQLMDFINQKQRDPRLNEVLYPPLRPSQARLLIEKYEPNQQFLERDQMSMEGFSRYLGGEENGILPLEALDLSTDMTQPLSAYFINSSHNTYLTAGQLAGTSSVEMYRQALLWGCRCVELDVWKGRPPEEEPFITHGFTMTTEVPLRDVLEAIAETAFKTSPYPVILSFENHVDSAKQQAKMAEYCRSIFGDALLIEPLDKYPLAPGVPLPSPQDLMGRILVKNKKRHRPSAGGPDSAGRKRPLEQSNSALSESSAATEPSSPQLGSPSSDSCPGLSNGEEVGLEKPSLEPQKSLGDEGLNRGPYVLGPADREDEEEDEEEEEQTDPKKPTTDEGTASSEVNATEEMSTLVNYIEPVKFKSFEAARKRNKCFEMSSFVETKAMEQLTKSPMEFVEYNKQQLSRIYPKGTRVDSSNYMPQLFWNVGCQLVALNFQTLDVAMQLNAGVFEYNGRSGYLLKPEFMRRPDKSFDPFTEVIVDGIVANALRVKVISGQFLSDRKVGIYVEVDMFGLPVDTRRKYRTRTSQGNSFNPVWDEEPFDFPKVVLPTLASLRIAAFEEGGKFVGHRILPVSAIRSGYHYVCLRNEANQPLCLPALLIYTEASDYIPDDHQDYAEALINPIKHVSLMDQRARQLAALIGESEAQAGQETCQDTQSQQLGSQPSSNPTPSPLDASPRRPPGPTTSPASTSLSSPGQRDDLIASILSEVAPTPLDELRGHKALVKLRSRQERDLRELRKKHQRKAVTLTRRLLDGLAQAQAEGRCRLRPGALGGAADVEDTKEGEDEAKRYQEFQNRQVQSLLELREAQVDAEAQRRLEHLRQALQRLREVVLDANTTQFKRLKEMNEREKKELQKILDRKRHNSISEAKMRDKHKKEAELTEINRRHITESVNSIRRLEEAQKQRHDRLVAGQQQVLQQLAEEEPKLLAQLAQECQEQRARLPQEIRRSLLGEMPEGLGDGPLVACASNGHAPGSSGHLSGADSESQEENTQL
Chain of Intestinal-type alkaline phosphatase (Mus musculus, UniProt P24822) (P24822 whole entry): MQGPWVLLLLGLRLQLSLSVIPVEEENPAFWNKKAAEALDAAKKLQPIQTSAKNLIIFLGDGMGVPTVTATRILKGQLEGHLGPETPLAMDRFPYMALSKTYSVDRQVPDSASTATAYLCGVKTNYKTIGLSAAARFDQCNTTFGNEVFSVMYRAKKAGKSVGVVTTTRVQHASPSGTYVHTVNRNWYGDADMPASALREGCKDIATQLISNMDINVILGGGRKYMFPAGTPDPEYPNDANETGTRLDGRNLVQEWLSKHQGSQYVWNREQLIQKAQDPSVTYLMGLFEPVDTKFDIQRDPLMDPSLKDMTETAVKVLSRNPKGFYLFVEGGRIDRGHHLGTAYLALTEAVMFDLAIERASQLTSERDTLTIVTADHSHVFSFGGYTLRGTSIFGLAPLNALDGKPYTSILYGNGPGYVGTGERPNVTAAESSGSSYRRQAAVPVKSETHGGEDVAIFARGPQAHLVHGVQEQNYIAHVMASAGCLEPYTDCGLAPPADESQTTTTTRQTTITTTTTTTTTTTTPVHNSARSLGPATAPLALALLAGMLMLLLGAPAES

Cc1cccc(-c2oc3ccc(-c4ccc5c(c4)OCO5)cc3c2C#Cc2cncn2C)c1
CC50 [1]: > 40 µM (active) | CC50 [2]: > 50 µM (active) | CC50 [3]: 85.2 µM (active) | AC50 [4]: 21.8 µM (active) | CC50 [5]: 42.3 µM (active) | CC50 [6]: 34.6 µM (active) | CC50 [7]: > 44.8 µM (active) | CC50 [8]: > 50 µM (active) | AC50 [9]: 5.28 µM (active) | CC50 [10]: > 93 µM (active) | CC50 [11]: 43.8 µM (active) | CC50 [12]: > 50 µM (active)

N#CC(c1ccc(F)cc1)c1c(Br)cnn(Cc2cccc3ccccc23)c1=O (configuration not stated)
IC50 [13]: 0.24 µM (active) | IC50 [14]: 0.24 µM (active)

CC(C(=O)O)N1C(=O)/C(=C/C=C/c2ccco2)SC1=S (configuration not stated)
IC50 [15]: 61.4 µM (active) | IC50 [16]: > 122 µM (inactive) | IC50 [17]: > 100 µM (inactive) | IC50 [18]: 1.21 µM (active) | IC50 [19]: 2.79 µM (active) | IC50 [20]: 1.07 µM (active) | IC50 [21]: > 122 µM (inactive) | IC50 [22]: > 71.5 µM (inactive) | IC50 [23]: 1.19 µM (active) | AC50 [24]: 1.63 µM (active) | AC50 [25]: 45.6 µM (active) | IC50 [26]: 0.884 µM (active) | IC50 [27]: 10 µM (active) | IC50 [28]: > 100 µM (inactive) | IC50 [29]: > 20 µM (inactive) | IC50 [30]: 2.08 µM (active)

COc1ccc(C2=NOC(C(=O)O)C2)cc1 (configuration not stated)
EC50 [31]: > 100 µM (inactive) | EC50 [32]: > 100 µM (inactive)
